Data on 30 compounds can be found in patent publication US20180057505A1, “BICYCLIC HETEROARYL COMPOUNDS USEFUL AS INHIBITORS OF THE PAR-2 SIGNALING PATHWAY” (VERTEX PHARMACEUTICALS INCORPORATED, priority 2015, published 2018).

Type in all cases: cell-based
For assay [1], the target named is T1, PAR2 (HT-29 cells) (Homo sapiens, UniProt P55085).
T1 construct: host or cells: HT-29
T1 sequence (P55085 26-397): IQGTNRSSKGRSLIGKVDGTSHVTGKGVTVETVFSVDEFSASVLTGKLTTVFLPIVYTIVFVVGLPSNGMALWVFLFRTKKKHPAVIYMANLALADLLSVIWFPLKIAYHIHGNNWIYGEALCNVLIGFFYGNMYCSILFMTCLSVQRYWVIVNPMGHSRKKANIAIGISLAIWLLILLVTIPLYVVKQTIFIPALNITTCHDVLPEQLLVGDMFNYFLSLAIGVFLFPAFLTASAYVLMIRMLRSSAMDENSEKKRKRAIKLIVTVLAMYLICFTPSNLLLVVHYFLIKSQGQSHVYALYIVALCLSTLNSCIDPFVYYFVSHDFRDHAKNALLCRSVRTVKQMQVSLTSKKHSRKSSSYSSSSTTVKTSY
The assay is described as follows: Ca FLIPR TETRA assay, ANTAGONIST mode, activator 3.1 U/mL trypsin. As to conditions: HT-29 cells; activator 3.1 U/mL trypsin; Method A: maximal concentration of antagonist 0.1, 1 or 2 μM. The procedure, abridged: (§1)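 Inhibition of agonist-evoked calcium signals was measured in human HT-29 colon cells cultured overnight in 1% FBS McCoy's medium. Test compounds preincubated 30 min at r.t.; activators at final concentrations as stated for each readout.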

Assay [2] concerns UTP-stimulated Ca2+ response in HT-29 cells. The assay is described as follows: Ca FLIPR TETRA assay, ANTAGONIST mode, activator 0.6 μM UTP. The conditions noted are these: HT-29 cells, activator 0.6 μM UTP. The procedure, abridged: as §1
Assay [3] concerns the target T1, PAR2 (HT-29 cells). As to the kind of experiment: Ca FLIPR TETRA assay, ANTAGONIST mode, activator 8 μM SLIGKV. The conditions noted are these: HT-29 cells; activator 8 μM SLIGKV; Method A: maximal concentration of antagonist 0.1, 1 or 2 μM. The procedure, abridged: as §1
The subject of assay [4] is Thrombin-stimulated Ca2+ response in HT-29 cells. The assay is described as follows: Ca FLIPR TETRA assay, ANTAGONIST mode, activator 1 U/mL Thrombin. The conditions noted are these: HT-29 cells, activator 1 U/mL Thrombin. The procedure, abridged: as §1

As to `CC(C)(C)c1cc(C2CCC(Cl)(Cl)CC2)nc2cc(C(=O)N3CCN(C(=O)[C@H]4C[C@@](C)(O)C4)CC3(C)C)oc12` [Example I-305], the IC50 is 3 nM in assay [1], greater than 2000 nM in assay [2] (Homo sapiens), 1.5 nM in assay [3] and greater than 2000 nM in assay [4] (Homo sapiens).

On to `CC1(C)CCC(c2cc(C(C)(C)C)c3oc(C(=O)N4CCN(C(=O)[C@H]5CC[C@](C)(C(=O)O)CC5)CC4(C)C)cc3n2)CC1` [Example I-306], for which the IC50 in assay [1] came out at 17 nM; in assay [2] (Homo sapiens), 1800 nM; in assay [3] it was 4.7 nM; in assay [4] (Homo sapiens), 1400 nM.

On to `[2H]C([2H])([2H])N1CCN(C(=O)c2cc3nc(C4CCC(F)(F)CC4)cc(C(C)(C)C)c3o2)C(C)(C)C1=O` [Example I-307], for which the IC50 in assay [1] is 210 nM; in assay [2] (Homo sapiens), greater than 2000 nM; in assay [3], 124 nM; in assay [4] (Homo sapiens), greater than 2000 nM.

With `CC(C)(C)c1cc(-c2ccc(F)cc2)nc2cc(C(=O)N3CCN(C(C)(C)C)C(=O)C3(C)C)oc12` [Example I-308], the IC50 in assay [1] is 37 nM; in assay [2] (Homo sapiens) it was greater than 2000 nM; in assay [3], 14 nM; in assay [4] (Homo sapiens) it was greater than 2000 nM.

As for `Cc1cc(N2CCN(C(=O)c3cc4nc(C5CCC(C)(C)CC5)cc(C(C)(C)C)c4o3)C(C)(C)C2=O)n[nH]1` [Example I-309], the IC50 in assay [1] is 40 nM; in assay [2] (Homo sapiens), greater than 2000 nM; in assay [3], 32 nM; in assay [4] (Homo sapiens), greater than 2000 nM.

For `CC(C)(C)c1cc(C2CCC(F)(F)CC2)nc2cc(C(=O)N3CCN(c4cn[nH]c4)C(=O)C3(C)C)oc12` [Example I-310], the IC50 in assay [1] was 110 nM; in assay [2] (Homo sapiens), greater than 2000 nM; in assay [3] it was 61 nM; in assay [4] (Homo sapiens), greater than 2000 nM.

For `CC(C)(C)c1cc(C2CCC(F)(F)CC2)nc2cc(C(=O)N3CCN(C(=O)c4nnc[nH]4)CC3(C)C)oc12` [Example I-311], the IC50 in assay [1] was 83 nM; in assay [2] it was greater than 2000 nM; in assay [3], 81 nM; in assay [4], greater than 2000 nM.

Turning to `CN1CCN(C(=O)c2cc3nc(C4CCC(F)(F)CC4)cc(C(C)(C)C)c3o2)C(C)(C)C1=O` [Example I-312], the IC50 is 260 nM in assay [1], greater than 2000 nM in assay [2] (Homo sapiens), 170 nM in assay [3] and greater than 2000 nM in assay [4] (Homo sapiens).

With `Cc1c[nH]nc1N1CCN(C(=O)c2cc3nc(C4CCC(C)(C)CC4)cc(C(C)(C)C)c3o2)C(C)(C)C1=O` [Example I-313], the IC50 is 310 nM in assay [1], greater than 2000 nM in assay [2] (Homo sapiens), 75 nM in assay [3] and greater than 2000 nM in assay [4] (Homo sapiens).

With `CC(C)(C)c1cc(-c2ccc(F)cc2)nc2cc(C(=O)N3CCN(C(=O)[C@H]4C[C@@](C)(O)C4)C(C)(C)C3)oc12` [Example I-314], the concentration for half-maximal inhibition (IC50) in assay [1] is 730 nM; in assay [2] (Homo sapiens), greater than 2000 nM; in assay [3], 190 nM; in assay [4] (Homo sapiens), greater than 2000 nM.

For the compound `CC1(C)CCC(c2cc(C(C)(C)C)c3oc(C(=O)N4CCN(c5cn[nH]c5)C(=O)C4(C)C)cc3n2)CC1` [Example I-315], the IC50 in assay [1] is 12 nM; in assay [2] (Homo sapiens) it was greater than 2000 nM; in assay [3] it was 5.7 nM; in assay [4] (Homo sapiens), greater than 2000 nM.

For the compound `CN1CCN(C(=O)c2cc3nc(C4CCC(C)(C)CC4)cc(C(C)(C)C)c3o2)C(C)(C)C1=O` [Example I-317], the IC50 in assay [1] is 10 nM; in assay [2] (Homo sapiens), greater than 2000 nM; in assay [3], 8.2 nM; in assay [4] (Homo sapiens), greater than 2000 nM.

Turning to `Cn1cnnc1N1CCN(C(=O)c2cc3nc(-c4ccc(Cl)c(F)c4)cc(C(C)(C)C)c3o2)C(C)(C)C1` [Example I-318], the IC50 in assay [1] was 4.6 nM; in assay [2] (Homo sapiens) it was greater than 2000 nM; in assay [3], 2.8 nM; in assay [4] (Homo sapiens) it was greater than 2000 nM.

As for `CC(C)[C@@H](CC(=O)N1CCN(C(=O)c2cc3nc(C4CCC(C)(C)CC4)cc(C(C)(C)C)c3o2)C(C)(C)C1)C(=O)O` [Example I-319], the IC50 was 0.2 nM in assay [1], greater than 2000 nM in assay [2] (Homo sapiens), 0.2 nM in assay [3] and greater than 2000 nM in assay [4] (Homo sapiens).

As for `CC(C)[C@@H](CC(=O)N1CCN(C(=O)c2cc3nc(-c4ccc(Cl)cc4)cc(C(C)(C)C)c3o2)C(C)(C)C1)C(=O)O` [Example I-320], the IC50 is 0.2 nM in assay [1], greater than 2000 nM in assay [2] (Homo sapiens), 0.1 nM in assay [3] and greater than 2000 nM in assay [4] (Homo sapiens).

For the compound `CC(C)[C@@H](CC(=O)N1CCN(C(=O)c2cc3nc(-c4ccc(Cl)c(F)c4)cc(C(C)(C)C)c3o2)C(C)(C)C1)C(=O)O` [Example I-321], the IC50 in assay [1] was 0.1 nM; in assay [2] (Homo sapiens) it was greater than 2000 nM; in assay [3] it was 0.1 nM; in assay [4] (Homo sapiens) it was greater than 2000 nM.

For `CC(C)(C)c1cc(-c2ccc(Cl)cc2)nc2cc(C(=O)N3CCC(=O)NCC3(C)C)oc12` [Example I-322], the IC50 in assay [1] was 240 nM; in assay [2] (Homo sapiens), greater than 2000 nM; in assay [3], 92 nM; in assay [4] (Homo sapiens) it was greater than 2000 nM.

As to `CC(C)(C)c1cc(-c2ccc(Cl)cc2)nc2cc(C(=O)N3CCNC(=O)CC3(C)C)oc12` [Example I-323], the IC50 was 18 nM in assay [1], greater than 2000 nM in assay [2] (Homo sapiens), 12 nM in assay [3] and greater than 2000 nM in assay [4] (Homo sapiens).

Take `CC(C)(C)c1cc(-c2ccc(Cl)c(F)c2)nc2cc(C(=O)N3CCN(C(=O)CC4(C(=O)O)CCCC4)CC3(C)C)oc12` [Example I-324]: the IC50 in assay [1] is 0.4 nM; in assay [2] (Homo sapiens), greater than 2000 nM; in assay [3], 0.2 nM; in assay [4] (Homo sapiens), greater than 2000 nM.

As for `CC(C)(C)c1cc(-c2ccc(Cl)c(F)c2)nc2cc(C(=O)N3CCN(c4cccnc4)C(=O)C3(C)C)oc12` [Example I-325], the IC50 is 20 nM in assay [1], greater than 2000 nM in assay [2] (Homo sapiens), 20 nM in assay [3] and greater than 2000 nM in assay [4] (Homo sapiens).

For `CC(C)(C)c1cc(-c2ccc(Cl)cc2)nc2cc(C(=O)N3CCN(c4cccnc4)C(=O)C3(C)C)oc12` [Example I-326], the IC50 in assay [1] was 38 nM; in assay [2] (Homo sapiens), greater than 2000 nM; in assay [3], 23 nM; in assay [4] (Homo sapiens) it was greater than 2000 nM.

As for `CC(C)(C)c1cc(-c2ccc(Cl)c(F)c2)nc2cc(C(=O)N3CCN(c4ccncc4)C(=O)C3(C)C)oc12` [Example I-327], the IC50 in assay [1] is 12 nM; in assay [2] (Homo sapiens), greater than 2000 nM; in assay [3], 10 nM; in assay [4] (Homo sapiens), greater than 2000 nM.

Regarding `CC(C)(C)c1cc(-c2ccc(Cl)cc2)nc2cc(C(=O)N3CCN(c4ccncc4)C(=O)C3(C)C)oc12` [Example I-328], the IC50 in assay [1] was 22 nM; in assay [2] (Homo sapiens), greater than 2000 nM; in assay [3], 16 nM; in assay [4] (Homo sapiens), greater than 2000 nM.

Turning to `CC(C)(C)c1cc(-c2ccc(Cl)c(F)c2)nc2cc(C(=O)N3CCN(c4ccccn4)C(=O)C3(C)C)oc12` [Example I-329], the IC50 is 13 nM in assay [1], greater than 2000 nM in assay [2] (Homo sapiens), 12 nM in assay [3] and greater than 2000 nM in assay [4] (Homo sapiens).

As for `CC(C)(C)c1cc(-c2ccc(Cl)cc2)nc2cc(C(=O)N3CCN(c4ccccn4)C(=O)C3(C)C)oc12` [Example I-330], the IC50 in assay [1] was 32 nM; in assay [2] (Homo sapiens) it was greater than 2000 nM; in assay [3] it was 21 nM; in assay [4] (Homo sapiens), greater than 2000 nM.

As to `CC(C)(C)c1cc(-c2ccc(Cl)c(F)c2)nc2cc(C(=O)N3CCN(c4ncc(-c5nnn[nH]5)cn4)CC3(C)C)oc12` [Example I-331], the IC50 in assay [1] is 2.8 nM; in assay [2] (Homo sapiens) it was greater than 2000 nM; in assay [3], 1.3 nM; in assay [4] (Homo sapiens), 1800 nM.

Regarding `CC(C)[C@H](CC(=O)N1CCN(C(=O)c2cc3nc(-c4ccc(Cl)cc4)cc(C(C)(C)C)c3o2)C(C)(C)C1)C(=O)O` [Example I-333], the IC50 in assay [1] turned out to be 0.7 nM; in assay [2] (Homo sapiens), 2000 nM; in assay [3] it was 0.4 nM; in assay [4] (Homo sapiens), 1800 nM.

On to `Cc1cncc(N2CCN(C(=O)c3cc4nc(-c5ccc(Cl)c(F)c5)cc(C(C)(C)C)c4o3)C(C)(C)C2=O)n1` [Example I-334], for which the IC50 in assay [1] is 1.6 nM; in assay [2] (Homo sapiens), greater than 2000 nM; in assay [3] it was 1.4 nM; in assay [4] (Homo sapiens), greater than 2000 nM.

With `CC(C)(C)c1cc(-c2ccc(Cl)c(F)c2)nc2cc(C(=O)N3CCC(=O)NCC3(C)C)oc12` [Example I-335], the IC50 in assay [1] is 28.5 nM; in assay [2] (Homo sapiens) it was greater than 2000 nM; in assay [3], 91 nM; in assay [4] (Homo sapiens) it was greater than 2000 nM.

As for `CC(C)(C)c1cc(-c2ccc(Cl)c(F)c2)nc2cc(C(=O)N3CCNC(=O)CC3(C)C)oc12` [Example I-336], the IC50 is 9.6 nM in assay [1], greater than 2000 nM in assay [2] (Homo sapiens), 6.3 nM in assay [3] and greater than 2000 nM in assay [4] (Homo sapiens).

Usually IC50 stands for the concentration needed to halve the response being measured.
